Data reported in patent US6716961B2, “Chiral peptide nucleic acids with a N-aminoethyl-d-proline backbone” (ISIS Innovation Limited, priority 2001, dated 2004).

Experiments:
poly(dA) [1] = experiment: Tm (UV melting) measurement of hybrid with poly(dA); assay type: binding; details: conditions as FIG. 1 (10 mM sodium phosphate pH 7.0; 150 mM NaCl; T:A=1:1); dash with footnote b = no melting above 20° C. was observed
Description: (§1) FIG. 1 is a melting point curve for compound (3a) and poly (rA), (sigmoid curve with inflection at 53° C.) poly (rU) (rising straight line plot) and poly (dA) (falling straight line plot) Conditions: 10 mM sodium phosphate buffer pH 7.0; 150 mM NaCl; 1.0 μM (3a); ratio of T:A=1:1, 20% hypochromicity.
(§2) Poly(rA) (Mr˜7×10^6) and poly(rU) (Mr<9×10^5) was obtained from Fluka AG. Poly(dA) (Mr˜9.19×10^5) was obtained from Amersham Pharmacia Biotech. Poly(rI) was obtained from Sigma. The oligonucleotide, (dA)10 and fluorescent labelled (dA)10 was obtained in deprotected and hplc-purified form. All nucleic acids and oligonucleotides were used as received without further treatment.
(§3) The concentration of oligonucleotide, nucleic acid and cPNA solutions was determined from the absorbance at 260 nm (OD260). […]
(§4) Tm experiments were performed on a CARY 100 UV Spectrophotometer (Varian Ltd.) equipped with a thermal melt system. The sample for Tm measurement was prepared by mixing calculated amounts of stock oligonucleotide and cPNA solutions together to give final concentration of nucleotides and sodium phosphate buffer (pH 7.0) and the final volumes were adjusted to 3.0 mL by addition of deionized water. […] The OD260 was recorded in steps from 20-95° C. […] The results were normalized by dividing the absorbance at each temperature by the initial absorbance. […]

poly(rI) = experiment: Tm (UV melting) control experiment with poly(rI); assay type: binding; details: conditions as FIG. 1; dash with footnote b = no melting above 20° C. was observed
Description: as §1, §2, §3, §4

[2] = tested on: fluorescent labelled (dA)10; experiment: Gel electrophoresis with fluorescent labelled (dA)10; assay type: binding; details: F(dA)10:cPNA 1:1 to 1:10; 20% polyacrylamide gel, 90 mM TBE
Text: The gel electrophoresis apparatus used was a SE6000 Vertical Slab Gel Electrophoresis Unit (Hoefer Scientific Instruments). The gel dimensions were 10×9.5×0.075 cm. The DC power sources was an Electrophoresis power supply model EPS-301 (Amersham Pharmacia Biotech). Acrylamide and N,N-methylene bisacrylamide were obtained as a concentrated aqueous stock solution from Fluka AG. Ammonium persulfate (electrophoresis grade) was obtained from Sigma Chemical Co. Tetramethylethylenediamine (TEMED) (electrophoresis grade) and hemicals necessary for preparing buffers were of the highest purity available from BDH. The stock 0.90 M Tris-Borate-EDTA (TBE) buffer pH 8.3 and the loading buffer (30% glycerol, 0.025% bromophenol blue and 0.025% xylene cyanol FF in 90 mM TBE as well as the 20% polyacrylamide gel in 90 mM TBE was prepared according to the literature (see Essential Molecular Biology, A Practical Approach, Vol 1, Oxford, 1991, pp 89-126).
The sample was prepared by mixing calculated amounts of the fluorescent labelled (dA)10 and PNA concentrated stock solutions in an Eppendorf tube to give the final total amounts of AMP ˜1 nmol and the molar ratio of F(dA)10:cPNA=1:1, 1:2, 1:3, 1:5 and 1:10. […]

[3] = Solubility in aqueous solvents; assay type: physicochemical
poly(rA) [4] = experiment: Tm (UV melting) measurement of hybrid with poly(rA); assay type: binding
Description: as §1, §2, §3, §4

poly(rU) = experiment: Tm (UV melting) control experiment with poly(rU); assay type: binding; details: conditions as FIG. 1; dash with footnote b = no melting above 20° C. was observed
Description: as §1, §2, §3, §4

poly(rA) [5] = experiment: Circular dichroism spectroscopy of mixture with poly(rA); assay type: binding; details: 10 mM sodium phosphate buffer pH 7.0; 200-300 nm
Description: (§5) FIG. 2A is a CD spectra of mixture of poly(rA) and (3a) at different equivalents of T; inset: plot of ε260 versus equivalents of T; FIG. 2B is a CD spectra of mixture of poly(dA) and (3a) at different equivalents of T. Conditions 10 mM sodium phosphate buffer pH 7.0. The concentration of poly (rA) and poly (dA) was 10 μM based on AMP.
(§6) All CD experiments were performed on a JASCO Model J-710/720 spectropolarimeter (Oxford Centre of Molecular Sciences, Oxford). The samples were prepared by mixing calculated amounts of stock oligonucleotide and cPNA solutions together in a 10 mm quartz cell and the final volumes were adjusted to 2.00 mL by addition of deionized water containing an appropriate amount of sodium phosphate buffer pH 7.0 to give the final AMP concentration of 5 mM and phosphate buffer of 10 mM. The spectra were measured at 20° C. from 300 to 200 nm and averaged 4 times then subtracted from a spectrum of pure water under the same conditions.

poly(dA) [6] = experiment: Circular dichroism spectroscopy of mixture with poly(dA); assay type: binding; details: 10 mM sodium phosphate buffer pH 7.0; same conditions as poly(rA)
Description: as §5, §6

Substance	Tm of hybrid with poly(dA) (poly(dA) [1]) [°C]	Tm of hybrid with poly(rI) (poly(rI))	binding to (dA)10 in gel electrophoresis [2]	achievable concentration in aqueous solvents [3]	solubility in aqueous solvents [3]	Tm of hybrid with poly(rA) (poly(rA) [4]; 10 mM sodium phosphate buffer pH 7.0, 150 mM NaCl, 1.0 μM (3a), T:A=1:1) [°C]	binding to poly(rA) at high salt concentration (poly(rA) [4]; 1.0 M NaCl)	Tm of hybrid with poly(rU) (poly(rU))	change in CD signal on addition to poly(rA) (poly(rA) [5])	change in CD signal on addition to poly(dA) (poly(dA) [6])
H-[Gly-o-Pro(cis-τ)]10-LysNH, [(2a)]	70									
H-[(ψ-CH2)Gly-D-Pro(T)]10-LysNH2 [(3a)]		no observable melting curve	lack of binding	exceeding 5 mg/mL	freely soluble in aqueous solvents	53	no binding	no observable melting curve	strong induced CD signal with a minima at 275 nm	no significant change
H-[Acg(T)]10-LysNH3 [(1a)]	73									
